Drawing on patent US20220096454A1, “CARBOXYLIC ACID DERIVATIVES” (Merck Patent GmbH, priority 2018, published 2022), this text covers EC50 and IC50 for seven compounds.

One experiment has as its system Tankyrases. The following applies: read-out: EC50 [M] TNKS cellular assay; increase of Axin2 level in colon carcinoma cell line DLD1, 24 hours.
In the next experiment the target is T1, TNKS2 (Homo sapiens, UniProt Q9H2K2).
T1 construct: GST-tagged Tnks-2 (873-1166 aa, prepared in-house); made in house
Briefly: TNKS2 activity ELISA (autoparsylation assay). In kind it is biochemical. The following applies: GST-tagged Tnks-2 (873-1166 aa), 10 μM bio-NAD, 1 hour at 30° C. As to the method:
(§1) Description of the TNKS1 and TNKS2 ELISA Assay
(§2) Biochemical activity testing of TNKS 1 and 2: activity ELISA (Autoparsylation assay)
(§3) For analysis of autoparsylation activity of TNKS 1 and 2 an activity ELISA is performed: In the first step GST tagged TNKS is captured on a Glutathione coated plate. Then the activity assay with biotinylated NAD is performed in the absence/presence of the compounds. During the enzymatic reaction GST tagged TNKS transfers biotinylated ADP-ribose to itself from biotinylated NAD as co-substrate. For the detection streptavidin-HRP conjugate is added that binds to the biotinylated TNKS and is thereby captured to the plates. The amount of biotinylated resp. autoparsylated TNKS is detected with a luminescence substrate for HRP. The level of the luminescence signal correlates directly with the amount of autoparsylated TNKS and therefore with activity of TNKS.
(§4) The activity ELISA is performed in 384 well Glutathione coated microtiter plates (Express capture Glutathione coated plate, Biocat, Heidelberg, Germany). The plates are pre-equilibrated with PBS. […] The plates are washed 3 times with PBS-Tween-20. The wells are blocked by incubation at room temperature for 20 minutes with 50 μl blocking buffer (PBS, 0.05% Tween-20, 0.5% BSA). Afterwards the plates are washed 3 times with PBS-Tween-20. […] The reaction is stopped by 3 times washing with PBS-Tween-20. For the detection 50 μl of 20 ng/μl Streptavidin, HRP conjugate (MoBiTec, Göttingen, Germany) in PBS/0.05% Tween-20/0.01% BSA are added and the plates are incubated for 30 minutes at room temperature. After three times washing with PBS-Tween-20 50 μl of SuperSignal ELISA Femto Maximum sensitivity substrate solution (ThermoFisherScientific (Pierce), Bonn, Germany) are added. Following a 1 minute incubation at room temperature luminescence signals are measured with an Envision multimode reader (Perkin Elmer LAS Germany GmbH) at 700 nm. The full value used is the inhibitor-free reaction. […] The inhibitory values (IC50) are determined using either the program Symyx Assay Explorer® or Condosseo® from GeneData.
A general note: ELISA stands for enzyme-linked immunosorbent assay.

Another experiment deals with T2, TNKS1 (Homo sapiens, UniProt O95271).
T2 construct: GST-tagged Tnks-1 (1023-1327 aa, prepared in-house); made in house
The experiment in a line: TNKS1 activity ELISA (autoparsylation assay). In kind it is biochemical. The note with it: GST-tagged Tnks-1 (1023-1327 aa), 10 μM bio-NAD, 1 hour at 30° C. As to the method:
as §1, §2, §3, §4

T1 sequence (Q9H2K2 873-1166): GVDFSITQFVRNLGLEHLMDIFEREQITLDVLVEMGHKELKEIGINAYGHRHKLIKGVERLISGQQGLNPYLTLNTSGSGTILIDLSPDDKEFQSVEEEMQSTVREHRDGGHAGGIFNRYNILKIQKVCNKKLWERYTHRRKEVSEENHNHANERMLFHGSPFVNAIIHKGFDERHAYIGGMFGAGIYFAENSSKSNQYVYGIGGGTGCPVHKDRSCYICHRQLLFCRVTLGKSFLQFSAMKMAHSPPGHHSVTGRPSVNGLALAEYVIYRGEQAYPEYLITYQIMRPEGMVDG
T2 sequence (O95271 1023-1327): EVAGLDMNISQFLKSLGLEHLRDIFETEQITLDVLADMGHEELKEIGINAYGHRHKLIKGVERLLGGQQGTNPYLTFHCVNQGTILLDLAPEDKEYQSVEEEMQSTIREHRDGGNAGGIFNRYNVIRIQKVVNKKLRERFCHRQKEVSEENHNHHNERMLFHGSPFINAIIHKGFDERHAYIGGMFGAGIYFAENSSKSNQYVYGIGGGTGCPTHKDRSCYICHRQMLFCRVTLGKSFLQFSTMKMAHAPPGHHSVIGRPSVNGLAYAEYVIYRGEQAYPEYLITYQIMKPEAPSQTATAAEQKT
Procedure for Tankyrases: Measurement of Cellular Inhibition of Tankyrase
Cells of the colon carcinoma cell line DLD1 are plated in 96 well plates with 1.5×10^4 cells per well. Next day, cells are treated with a serial dilution of test compound in seven steps as triplicates with a final DMSO concentration of 0.3%. […] The amount of isolated Axin2 protein is determined in a Luminex^200 machine (Luminex Corporation) according to the manufacturer's instruction by counting 100 events per well. […] As controls cells are treated with solvent alone (neutral control) and with a Tankyrase reference inhibitor IWR-2 (3E−06 M) which refers as control for maximum increase of Axin2. For analysis, the obtained data are normalized against the untreated solvent control and fitted for determination of the EC50 values using the Assay Explorer software (Accelrys).

As usually defined, the EC50 is the concentration that produces a half-maximal response. In general, IC50 refers to the concentration needed to halve the response being measured. Lower therefore signals higher potency. `CN(C(=O)N1CCC(C(=O)c2ccc3ncn(C)c3c2)CC1)c1ccc(C(=O)O)cc1` [Compound C26, 4-{Methyl-[4-(3-methyl-3H-benzoimidazole-5-carbonyl)-piperidine-1-carbonyl]-amino}-benzoic Acid]: the EC50 in the experiment with Tankyrases is 1.1e-06 M. Besides, the IC50 on TNKS2 was determined as 0.62 nM; against TNKS1 it was 1.5 nM.

For the compound `CCN(C(=O)N1CCC(C(=O)c2ccc3ncn(C)c3c2)CC1)c1cccc(C(=O)O)c1` [Compound C29, 3-{Ethyl-[4-(3-methyl-3H-benzimidazole-5-carbonyl)-piperidine-1-carbonyl]-amino}-benzoic Acid], in the experiment with Tankyrases, the EC50 turned out to be 4.75e-06 M. Moreover, the IC50 is 3 nM on TNKS2 and 3.4 nM at TNKS1.

`CN(C(=O)N1CCC(C(=O)c2ccc3c(c2)ncn3C)CC1)c1ccc(C(=O)O)cc1` [Compound C30, 4-{Methyl-[4-(1-methyl-1H-benzimidazole-5-carbonyl)-piperidine-1-carbonyl]-amino}-benzoic Acid]: in the experiment on Tankyrases, the EC50 is 6e-06 M. Also, the IC50 against TNKS2 stood at 10 nM; against TNKS1, 17 nM.

Regarding `CCN(C(=O)N1CCC(C(=O)c2ccc3c(c2)ncn3C)CC1)c1ccc(C(=O)O)cc1` [Compound C31, 4-{Ethyl-[4-(1-methyl-1H-benzimidazole-5-carbonyl)-piperidine-1-carbonyl]-amino}-benzoic Acid], the EC50 in the experiment with Tankyrases came to 3.69e-07 M. Also, the IC50 on TNKS2 came to 2.6 nM; against TNKS1 it was 3.5 nM.

With `CCN(C(=O)N1CCC(C(=O)c2ccc3c(c2)ncn3C)CC1)c1cccc(C(=O)O)c1` [Compound C33, 3-{Ethyl-[4-(1-methyl-1H-benzimidazole-5-carbonyl)-piperidine-1-carbonyl]-amino}-benzoic Acid], the EC50 in the experiment with Tankyrases is 3.6e-06 M. For the same compound, the IC50 against TNKS2 was found to be 1.5 nM; against TNKS1 it was 3.3 nM.

With `CN(C(=O)N1CCC(C(=O)c2ccc3nnn(C)c3c2)CC1)c1ccc(C(=O)O)cc1` [Compound C34, 4-{Methyl-[4-(3-methyl-3H-benzotriazole-5-carbonyl)-piperidine-1-carbonyl]-amino}-benzoic Acid], the EC50 in the experiment on Tankyrases was determined as 3.2e-06 M. Besides, the IC50 against TNKS2 is 1.1 nM; at TNKS1, 2.6 nM.

Take `CCN(C(=O)N1CCC(C(=O)c2ccc3nnn(C)c3c2)CC1)c1ccc(C(=O)O)cc1` [Compound C35, 4-{Ethyl-[4-(3-methyl-3H-benzotriazole-5-carbonyl)-piperidine-1-carbonyl]-amino}-benzoic Acid]: in the experiment with Tankyrases, the EC50 was 3.1e-07 M. The IC50 was determined as 0.192 nM against TNKS2 and 0.472 nM against TNKS1.
